{"source": "patent US12077503B2", "about": "“Substituted cyclic amides and their use as herbicides” (FMC CORPORATION, priority 2015, dated 2024)", "experiment_in_all_cases": "Test C preemergence", "type_in_all_cases": "in vivo", "key": {"corn (Zea mays)": {"tested_on": "corn (Zea mays)", "conditions": "for Plant response rating, Corn: scale 0 to 100, 0 no effect, 100 complete control", "procedure,_shortened": "(§1)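 Visual rating, 0–100 scale (0 = no effect, 100 = complete control) versus controls, 13–15 d after treatment. Compounds in non-phytotoxic solvent plus surfactant; applied preemergence to seeds in loam/sand soil or postemergence to 1- to 4-leaf plants (2–18 cm) in peat/vermiculite medium; greenhouse-held.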"}, "[1]": {"tested_on": "barnyardgrass (Echinochloa crus-galli)", "conditions": "for Plant response rating, Barnyardgrass: scale 0 to 100, 0 no effect, 100 complete control", "procedure,_shortened": "as §1"}, "[2]": {"tested_on": "waterhemp (common waterhemp, Amaranthus rudis)", "conditions": "for Plant response rating, Waterhemp: scale 0 to 100, 0 no effect, 100 complete control", "procedure,_shortened": "as §1"}, "[3]": {"tested_on": "Galium (catchweed bedstraw, Galium aparine)", "conditions": "for Plant response rating, Galium: scale 0 to 100, 0 no effect, 100 complete control", "procedure,_shortened": "as §1"}, "[4]": {"tested_on": "pigweed (Amaranthus retroflexus)", "conditions": "for Plant response rating, Pigweed: scale 0 to 100, 0 no effect, 100 complete control", "procedure,_shortened": "as §1"}, "[5]": {"tested_on": "lambsquarters (Chenopodium album)", "conditions": "for Plant response rating, Lambsquarters: scale 0 to 100, 0 no effect, 100 complete control", "procedure,_shortened": "as §1"}, "[6]": {"tested_on": "nutsedge, yellow (yellow nutsedge, Cyperus esculentus)", "conditions": "for Plant response rating, Nutsedge, Yellow: scale 0 to 100, 0 no effect, 100 complete control", "procedure,_shortened": "as §1"}, "[7]": {"tested_on": "foxtail, giant (giant foxtail, Setaria faberii)", "conditions": "for Plant response rating, Foxtail, Giant: scale 0 to 100, 0 no effect, 100 complete control", "procedure,_shortened": "as §1"}, "[8]": {"tested_on": "ragweed (common ragweed, Ambrosia elatior)", "conditions": "for Plant response rating, Ragweed: scale 0 to 100, 0 no effect, 100 complete control", "procedure,_shortened": "as §1"}, "[9]": {"tested_on": "ryegrass, Italian (Italian ryegrass, Lolium multiflorum)", "conditions": "for Plant response rating, Ryegrass, Italian: scale 0 to 100, 0 no effect, 100 complete control", "procedure,_shortened": "as §1"}, "[10]": {"tested_on": "crabgrass, large (large crabgrass, Digitaria sanguinalis)", "conditions": "for Plant response rating, Crabgrass, Large: scale 0 to 100, 0 no effect, 100 complete control", "procedure,_shortened": "as §1"}, "[11]": {"tested_on": "blackgrass (Alopecurus myosuroides)", "conditions": "for Plant response rating, Blackgrass: scale 0 to 100, 0 no effect, 100 complete control", "procedure,_shortened": "as §1"}, "[12]": {"tested_on": "johnsongrass (Sorghum halepense)", "conditions": "for Plant response rating, Johnsongrass: scale 0 to 100, 0 no effect, 100 complete control", "procedure,_shortened": "as §1"}, "[13]": {"tested_on": "wheat (winter wheat, Triticum aestivum)", "conditions": "for Plant response rating, Wheat: scale 0 to 100, 0 no effect, 100 complete control", "procedure,_shortened": "as §1"}, "[14]": {"tested_on": "velvetleaf (Abutilon theophrasti)", "conditions": "for Plant response rating, Velvetleaf: scale 0 to 100, 0 no effect, 100 complete control", "procedure,_shortened": "as §1"}, "[15]": {"tested_on": "oilseed rape (Brassica napus)", "conditions": "for Plant response rating, Oilseed Rape: scale 0 to 100, 0 no effect, 100 complete control", "procedure,_shortened": "as §1"}, "[16]": {"tested_on": "morningglory (Ipomoea coccinea)", "conditions": "for Plant response rating, Morningglory: scale 0 to 100, 0 no effect, 100 complete control", "procedure,_shortened": "as §1"}, "[17]": {"conditions": "31 g ai/ha, 0 is no effect, 100 is complete control"}}, "data": [{"smiles": "Cc1cccc(C2CN(C)C(=O)C2C(=O)Nc2cccc(F)c2F)c1", "note": "(centres unmarked) [Compound 667]", "values": [{"measurement": "Plant response rating (scale of 0 to 100), Corn", "setting": "corn (Zea mays); [17]", "result": 55}, {"measurement": "Plant response rating, Corn", "setting": "corn (Zea mays); 62 g ai/ha", "result": 70}, {"measurement": "Plant response rating, Corn", "setting": "corn (Zea mays); 125 g ai/ha", "result": 80}, {"measurement": "Plant response rating, Corn", "setting": "corn (Zea mays); 250 g ai/ha", "result": 85}, {"measurement": "Plant response rating (scale of 0 to 100), Barnyardgrass", "setting": "[1]; [17]", "result": 95}, {"measurement": "Plant response rating, Barnyardgrass", "setting": "[1]; 62 g ai/ha", "result": 95}, {"measurement": "Plant response rating, Barnyardgrass", "setting": "[1]; 125 g ai/ha", "result": 98}, {"measurement": "Plant response rating, Barnyardgrass", "setting": "[1]; 250 g ai/ha", "result": 100}, {"measurement": "Plant response rating (scale of 0 to 100), Waterhemp", "setting": "[2]; [17]", "result": 0}, {"measurement": "Plant response rating, Waterhemp", "setting": "[2]; 62 g ai/ha", "result": 10}, {"measurement": "Plant response rating, Waterhemp", "setting": "[2]; 125 g ai/ha", "result": 60}, {"measurement": "Plant response rating, Waterhemp", "setting": "[2]; 250 g ai/ha", "result": 75}, {"measurement": "Plant response rating (scale of 0 to 100), Galium", "setting": "[3]; [17]", "result": 10}, {"measurement": "Plant response rating, Galium", "setting": "[3]; 62 g ai/ha", "result": 100}, {"measurement": "Plant response rating, Galium", "setting": "[3]; 125 g ai/ha", "result": 98}, {"measurement": "Plant response rating, Galium", "setting": "[3]; 250 g ai/ha", "result": 90}, {"measurement": "Plant response rating (scale of 0 to 100), Pigweed", "setting": "[4]; [17]", "result": 40}, {"measurement": "Plant response rating, Pigweed", "setting": "[4]; 62 g ai/ha", "result": 50}, {"measurement": "Plant response rating, Pigweed", "setting": "[4]; 125 g ai/ha", "result": 50}, {"measurement": "Plant response rating, Pigweed", "setting": "[4]; 250 g ai/ha", "result": 70}, {"measurement": "Plant response rating (scale of 0 to 100), Lambsquarters", "setting": "[5]; [17]", "result": 50}, {"measurement": "Plant response rating, Lambsquarters", "setting": "[5]; 62 g ai/ha", "result": 70}, {"measurement": "Plant response rating, Lambsquarters", "setting": "[5]; 125 g ai/ha", "result": 90}, {"measurement": "Plant response rating, Lambsquarters", "setting": "[5]; 250 g ai/ha", "result": 100}, {"measurement": "Plant response rating (scale of 0 to 100), Nutsedge, Yellow", "setting": "[6]; [17]", "result": 0}, {"measurement": "Plant response rating, Nutsedge, Yellow", "setting": "[6]; 62 g ai/ha", "result": 0}, {"measurement": "Plant response rating, Nutsedge, Yellow", "setting": "[6]; 125 g ai/ha", "result": 0}, {"measurement": "Plant response rating, Nutsedge, Yellow", "setting": "[6]; 250 g ai/ha", "result": 25}, {"measurement": "Plant response rating (scale of 0 to 100), Foxtail, Giant", "setting": "[7]; [17]", "result": 95}, {"measurement": "Plant response rating, Foxtail, Giant", "setting": "[7]; 62 g ai/ha", "result": 98}, {"measurement": "Plant response rating, Foxtail, Giant", "setting": "[7]; 125 g ai/ha", "result": 98}, {"measurement": "Plant response rating, Foxtail, Giant", "setting": "[7]; 250 g ai/ha", "result": 100}, {"measurement": "Plant response rating (scale of 0 to 100), Ragweed", "setting": "[8]; [17]", "result": 25}, {"measurement": "Plant response rating, Ragweed", "setting": "[8]; 62 g ai/ha", "result": 100}, {"measurement": "Plant response rating, Ragweed", "setting": "[8]; 125 g ai/ha", "result": 70}, {"measurement": "Plant response rating, Ragweed", "setting": "[8]; 250 g ai/ha", "result": 80}, {"measurement": "Plant response rating (scale of 0 to 100), Ryegrass, Italian", "setting": "[9]; [17]", "result": 60}, {"measurement": "Plant response rating, Ryegrass, Italian", "setting": "[9]; 62 g ai/ha", "result": 70}, {"measurement": "Plant response rating, Ryegrass, Italian", "setting": "[9]; 125 g ai/ha", "result": 95}, {"measurement": "Plant response rating, Ryegrass, Italian", "setting": "[9]; 250 g ai/ha", "result": 98}, {"measurement": "Plant response rating (scale of 0 to 100), Crabgrass, Large", "setting": "[10]; [17]", "result": 95}, {"measurement": "Plant response rating, Crabgrass, Large", "setting": "[10]; 62 g ai/ha", "result": 95}, {"measurement": "Plant response rating, Crabgrass, Large", "setting": "[10]; 125 g ai/ha", "result": 98}, {"measurement": "Plant response rating, Crabgrass, Large", "setting": "[10]; 250 g ai/ha", "result": 98}, {"measurement": "Plant response rating (scale of 0 to 100), Blackgrass", "setting": "[11]; [17]", "result": 50}, {"measurement": "Plant response rating, Blackgrass", "setting": "[11]; 62 g ai/ha", "result": 80}, {"measurement": "Plant response rating, Blackgrass", "setting": "[11]; 125 g ai/ha", "result": 85}, {"measurement": "Plant response rating, Blackgrass", "setting": "[11]; 250 g ai/ha", "result": 95}, {"measurement": "Plant response rating (scale of 0 to 100), Johnsongrass", "setting": "[12]; [17]", "result": 70}, {"measurement": "Plant response rating, Johnsongrass", "setting": "[12]; 62 g ai/ha", "result": 80}, {"measurement": "Plant response rating, Johnsongrass", "setting": "[12]; 125 g ai/ha", "result": 85}, {"measurement": "Plant response rating, Johnsongrass", "setting": "[12]; 250 g ai/ha", "result": 90}, {"measurement": "Plant response rating (scale of 0 to 100), Wheat", "setting": "[13]; [17]", "result": 0}, {"measurement": "Plant response rating, Wheat", "setting": "[13]; 62 g ai/ha", "result": 10}, {"measurement": "Plant response rating, Wheat", "setting": "[13]; 125 g ai/ha", "result": 55}, {"measurement": "Plant response rating, Wheat", "setting": "[13]; 250 g ai/ha", "result": 50}, {"measurement": "Plant response rating (scale of 0 to 100), Velvetleaf", "setting": "[14]; [17]", "result": 5}, {"measurement": "Plant response rating, Velvetleaf", "setting": "[14]; 62 g ai/ha", "result": 30}, {"measurement": "Plant response rating, Velvetleaf", "setting": "[14]; 125 g ai/ha", "result": 50}, {"measurement": "Plant response rating, Velvetleaf", "setting": "[14]; 250 g ai/ha", "result": 40}, {"measurement": "Plant response rating (scale of 0 to 100), Oilseed Rape", "setting": "[15]; [17]", "result": 35}, {"measurement": "Plant response rating, Oilseed Rape", "setting": "[15]; 62 g ai/ha", "result": 85}, {"measurement": "Plant response rating, Oilseed Rape", "setting": "[15]; 125 g ai/ha", "result": 85}, {"measurement": "Plant response rating, Oilseed Rape", "setting": "[15]; 250 g ai/ha", "result": 90}, {"measurement": "Plant response rating (scale of 0 to 100), Morningglory", "setting": "[16]; [17]", "result": 0}, {"measurement": "Plant response rating, Morningglory", "setting": "[16]; 62 g ai/ha", "result": 0}, {"measurement": "Plant response rating, Morningglory", "setting": "[16]; 125 g ai/ha", "result": 0}, {"measurement": "Plant response rating, Morningglory", "setting": "[16]; 250 g ai/ha", "result": 10}]}]}
